Experimental data from patent US9790351B2, “Fat-binding compositions” (Eastpond Laboratories Limited, priority 2010, dated 2017).
Counter-ions that a name gives are not always drawn.

What was measured:
[1] = Association constants by capillary electrophoresis; format: binding; conditions: for Association constant, α-Cyclodextrin / Association constant, β-Cyclodextrin / Association constant, γ-Cyclodextrin: aqueous system, mean of three parallel determinations
Method: The association or binding constants of several selected weak complex-forming guest molecules with alpha-, beta- and gamma-cyclodextrins were experimentally determined. Capillary electrophoresis was utilized to determine the complex binding constants of selected dietary supplements thiamine, niacin and L-arginine in aqueous systems. The following values were determined:
Similarly, capillary electrophoresis was utilized to determine the complex binding constants of selected flavorants ethyl acetate, isoamyl acetate, diacetyl, and N,N-dimethyl formamide with alpha-, beta- and gamma-cyclodextrins.

[2] = Binding constants of flavorants, microcalorimetric method and GC flavorant retention
Excerpt: The tested compounds included those that are generally soluble or miscible in water. The complexes with the cyclodextrins were formed using methods corresponding to the two specifically described examples below involving apricot flavorant and banana flavorant.
Two types of methods were used to determine the apparent binding constants noted above. The “microcalorimetric” method was used as described in Lewis et al., “Thermodynamics of binding of guest molecules to alpha- and beta-cyclodextrins,” J. Chem. Soc. Perkin. Trans. 2, (15) pp. 2081-2085, 1973, the complete disclosure of which is hereby incorporated by reference for all purposes. Also, by measuring the flavorant retention in the inclusion complexes and the corresponding mechanical mixtures (identical composition except that linear dextrin is used in place of cyclodextrins) with gas chromatography, according to the method described by Reineccius et al., “Encapsulation of flavors using cyclodextrins: comparison of flavor retention in alpha, beta, and gamma types,” Journal of Food Science, 67(9), pp. 3271-3279 (2002), the complete disclosure of which is hereby incorporated by reference for all purposes.

[3] = cited from earlier work
[4] = Laser light scattering particle size distribution of dissolved alpha-cyclodextrin (aggregation); format: physicochemical
Excerpt: These solutions were then subjected to laser light scattering to determine the distribution of particle sizes in each solution. […] Cyclodextrin molecules in a less aggregated form likely include more available binding sites for complex formation. This experiment thus provides evidence that is consistent with the conclusion that carbonation allows for the availability of more cyclodextrin binding sites for forming complexes with fats.

[5] = Fat binding by a mixture of alpha-, beta- and gamma-cyclodextrins in water (precipitated inclusion complex); conditions: 0.01M each cyclodextrin and palmitic acid, 4 hours, ambient temperature
Excerpt: This reaction mixture was stirred for four hours at ambient temperature. […] The precipitate was removed by centrifugation.

[6] = Phase-solubility study of binding constant (Higuchi et al.); conditions: in water, 1:1 complex
Excerpt: The resulting 1:1, molar ratio betanin/alpha-cyclodextrin inclusion complex was a red colored, free flowing powder containing 32% betanin by weight, as determined by visible spectrophotometry. […] N. Reilly, Wiley, New York, 1965. vol. 4. pp. 117-212, the complete disclosure of which is hereby incorporated by reference for all purposes. The binding constant of the complex was Kass=85-105 M^−1

HepG2 cells = conditions: cited from earlier work
[7] = Apparent binding constant determined by chromatography; conditions: in water at 25° C.
Method: Also, the apparent binding constant of the alpha-cyclodextrin N-tert-butyl-hydroxylamine complex was determined by chromatography.

N=C(N)NCCC[C@H](N)C(=O)O [L-arginine]
Association constant, α-Cyclodextrin [1]: 21 ± 2 | Association constant, β-Cyclodextrin [1]: 100 ± 5 | Association constant, γ-Cyclodextrin [1]: 9 ± 2

CCOC(C)=O [Ethyl acetate]
Calculated Binding Constants, complex formed with alpha-cyclodextrin [2]: 60 M⁻¹ | Calculated Binding Constants, complex formed with beta-cyclodextrin [2]: 100 M⁻¹ | Association constant K, α-Cyclodextrin [1]: 37 M⁻¹ | Association constant K, β-Cyclodextrin [1]: 10 M⁻¹ | Association constant K, γ-Cyclodextrin [1]: 9 M⁻¹

Cc1ncc(C[n+]2csc(CCO)c2C)c(N)n1 [Thiamine HCl]
Association constant, α-Cyclodextrin [1]: 20 ± 2 | Association constant, β-Cyclodextrin [1]: 73 ± 3 | Association constant, γ-Cyclodextrin [1]: 8 ± 1

CN(CC(=O)O)C(=N)N [creatine]
intelligence ([3]; diet supplementation, compared with placebo): significantly increased intelligence | cognitive ability ([3]; elderly): improved cognitive ability

OC[C@H]1O[C@@H]2O[C@H]3[C@H](O)[C@@H](O)[C@@H](O[C@H]4[C@H](O)[C@@H](O)[C@@H](O[C@H]5[C@H](O)[C@@H](O)[C@@H](O[C@H]6[C@H](O)[C@@H](O)[C@@H](O[C@H]7[C@H](O)[C@@H](O)[C@@H](O[C@H]1[C@H](O)[C@H]2O)O[C@@H]7CO)O[C@@H]6CO)O[C@@H]5CO)O[C@@H]4CO)O[C@@H]3CO [alpha-cyclodextrin]
particle size of cyclodextrin particles ([4]; 2% w/v in carbonated water): < 500 nm | particle size of the majority of cyclodextrin particles ([4]; 2% w/v in non-carbonated tap water): ~1,000 nm | share of the cyclodextrin/palmitic acid complex in the precipitated complex [5]: about 78%

CCCCOC(C)=O [Butyl acetate]
Calculated Binding Constants, complex formed with alpha-cyclodextrin [2]: 72 M⁻¹ | Calculated Binding Constants, complex formed with beta-cyclodextrin [2]: 85 M⁻¹

CCCCOC(=O)CC(C)C [butyl isovalerate]
Calculated Binding Constants, complex formed with alpha-cyclodextrin [2]: 95 M⁻¹ | Calculated Binding Constants, complex formed with beta-cyclodextrin [2]: 110 M⁻¹

O=C(O)C1=C/C(=C/C=[N+]2/c3cc(O)c(OC4OC(CO)[C@@H](O)C(O)C4O)cc3CC2C(=O)[O-])CC(C(=O)O)N1 (stereo in doubt) [betanin]
binding constant Kass [6]: 85 to 105 M⁻¹

Cc1occc(=O)c1O [maltol]
Calculated Binding Constants, complex formed with alpha-cyclodextrin [2]: 70 M⁻¹ | Calculated Binding Constants, complex formed with beta-cyclodextrin [2]: 98 M⁻¹

NCCS(=O)(=O)O [taurine]
secretion of apolipoprotein and lipids (HepG2 cells): reduce the secretion of apolipoprotein 8100 and lipids

CC(=O)C(C)=O [diacetyl]
Association constant K, α-Cyclodextrin [1]: 28 M⁻¹ | Association constant K, β-Cyclodextrin [1]: 43 M⁻¹ | Association constant K, γ-Cyclodextrin [1]: 58 M⁻¹

OC[C@H]1O[C@@H]2O[C@H]3[C@H](O)[C@@H](O)[C@@H](O[C@H]4[C@H](O)[C@@H](O)[C@@H](O[C@H]5[C@H](O)[C@@H](O)[C@@H](O[C@H]6[C@H](O)[C@@H](O)[C@@H](O[C@H]7[C@H](O)[C@@H](O)[C@@H](O[C@H]8[C@H](O)[C@@H](O)[C@@H](O[C@H]9[C@H](O)[C@@H](O)[C@@H](O[C@H]1[C@H](O)[C@H]2O)O[C@@H]9CO)O[C@@H]8CO)O[C@@H]7CO)O[C@@H]6CO)O[C@@H]5CO)O[C@@H]4CO)O[C@@H]3CO [gamma-cyclodextrin]
share of the cyclodextrin/palmitic acid complex in the precipitated complex [5]: undetectable amounts

CCCCC(=O)OCC [ethyl valerate]
Calculated Binding Constants, complex formed with alpha-cyclodextrin [2]: 46 M⁻¹ | Calculated Binding Constants, complex formed with beta-cyclodextrin [2]: 80 M⁻¹

CC(C)(C)NO [N-tert-butyl-hydroxylamine]
apparent binding constant [7]: 80 to 105 M⁻¹

CCCCCOC(=O)CCCC [amyl valerate]
Calculated Binding Constants, complex formed with alpha-cyclodextrin [2]: 67 M⁻¹ | Calculated Binding Constants, complex formed with beta-cyclodextrin [2]: 45 M⁻¹

C=CCOC(=O)CCC [allyl butyrate]
Calculated Binding Constants, complex formed with alpha-cyclodextrin [2]: 45 M⁻¹ | Calculated Binding Constants, complex formed with beta-cyclodextrin [2]: 34 M⁻¹

CC(=O)OCCC(C)C [isoamyl acetate]
Association constant K, α-Cyclodextrin [1]: 729 M⁻¹ | Association constant K, β-Cyclodextrin [1]: 382 M⁻¹ | Association constant K, γ-Cyclodextrin [1]: 32 M⁻¹

CCCCCOC(C)=O [Amyl acetate]
Calculated Binding Constants, complex formed with alpha-cyclodextrin [2]: 85 M⁻¹ | Calculated Binding Constants, complex formed with beta-cyclodextrin [2]: 40 M⁻¹

O=C(O)c1cccnc1 [Nicotinic acid]
Association constant, α-Cyclodextrin [1]: 17 ± 2 | Association constant, β-Cyclodextrin [1]: 37 ± 3 | Association constant, γ-Cyclodextrin [1]: 10 ± 2
